Experimental data taken from article PMC7284125, “Identification of annotated bioactive molecules that impair motility of the blood fluke Schistosoma mansoni” (International Journal for Parasitology: Drugs and Drug …, 2020).
Like-named read-outs stand apart in the source and are kept apart here. Residues, ends and D or L forms follow the SMILES beside them. *: point of attachment. Cbz = O=C(OCc1ccccc1)*

How the values were obtained:
[1] = system: S. mansoni schistosomulae; assay: Phenotypic primary screen assay on schistosomulae (phenotype; viability by methylene blue dye exclusion); format: cell-based; conditions: Schistosoma mansoni; three-day-old schistosomulae, 10 μM, 24 h; calculated 5 days post compound exposure; read-out: Viability (%)
[2] = system: S. mansoni schistosomulae; assay: Motility assay on schistosomulae (pixel displacement, relative to DMSO control); format: cell-based, Schistosoma mansoni; conditions: for activity at 1 µM: Schistosoma mansoni, read-out: Fractional motility
Outline: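 Mechanically transformed S. mansoni schistosomulae (200/well) in Opti-MEM with 5% dialyzed FBS were exposed to compounds at 1 and 10 μM for 24 h at 37 °C, 5% CO2. Motility filmed at 10 frames/s for 1 min and quantified by pixel displacement relative to DMSO-treated controls.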

[3] = system: S. mansoni schistosomulae; assay: Phenotypic primary screen assay on schistosomulae (phenotype; viability by methylene blue dye exclusion); format: cell-based, Schistosoma mansoni; conditions: for effect on viability of schistosomulae in words: 24 h incubation, five days; for Phenotype: estimated 5 days post compound exposure
Outline: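 Parasites lacking contraction/relaxation cycles and showing dark internal granulations counted as dead. Movement and body shape were compared with DMSO-treated controls under a stereo microscope at 24 h and at five days of exposure. Larvae came from infected snails shed under light for 2 h at 32 °C.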

S. mansoni adult worms = assay: Motility assay on adult parasites (pixel displacement, relative to DMSO control); format: cell-based, Schistosoma mansoni; conditions: 10 μM; for motility phenotype in words: adults, long-term after washout; for Fractional motility: secondary screen
Outline: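 Unpaired adult worms from mice 6 weeks post-infection kept in OPTI-MEM with 5% dialyzed FBS and exposed to compounds at 1 and 10 μM for 24 h. Motility filmed 1 min at 10 frames/s, quantified by pixel displacement versus DMSO-treated worms; recovery followed up to five days after washout.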

schistosomes [4] = system: schistosomes; set-up: method as in de Almeida et al., 2016; conditions: 12.5–100 μM; ref de Almeida et al., 2016; cited from earlier work
schistosomulae [5] = system: schistosomulae; set-up: method as in El-Sakkary et al., 2018; conditions: 20 min exposure, 10 μM; ref El-Sakkary et al., 2018; cited from earlier work
schistosomes [6] = system: schistosomes; set-up: method as in Guerra-Sa et al., 2005; conditions: treated mice; ref Guerra-Sa et al., 2005; cited from earlier work
schistosomulae [7] = system: schistosomulae; set-up: method as in Panic et al., 2015b; conditions: 72 h incubation at 10 μM; ref Panic et al., 2015b; cited from earlier work
Glo HEK293 cells = assay: Cellular viability, CellTiter Glo 2.0; format: cell-based, human; conditions: 10 μM, 3 h
Procedure: Adherent HEK293 cells were seeded at a density of 5 x 10^4 cells/well (96-well plate) in Opti-MEM without FBS or antibiotics and incubated overnight at 37 °C and 5% CO2 prior to the assay. In place of the media, 100 μL HBSS supplemented with 0.1% bovine serum albumin (BSA), 500 μM 3-isobutyl-1-methylxanthine (IBMX, Sigma Aldrich), 20 mM HEPES (pH 7.4) and 1 mg/mL D-luciferin (Goldbio) was added to each well. After a 2 h incubation period at room temperature, luminescence background was recorded, and compounds and control ligands were added at 10X concentration. Immediately after compound addition, luminescence was read over a 45 min period to detect compounds stimulating cAMP release through receptor activation. […] For each assay, luminescence responses were recorded in triplicate and repeated with four independant cell batches. Compounds were also added to naïve Glo HEK293 cells (no receptor) and the robustness of the assay was calculated as: Z^'=1−3×(SDmax+SDmin)/Meanmax−Meanmin with max and min referring respectively to cells expressing GPCRs and Glo (no receptor) cells. Cellular viability was assessed using a CellTiter Glo 2.0 kit (Promega). Glo cells were exposed to 10 μM of each hit compound for 3 h in Opti-MEM at 37 °C, 5% CO2. […] 2X cell lysis media was then added and end-point luminescence recorded after a 10 min stabilization time.

Sm5HTR = Sm5HTR (Schistosoma mansoni, UniProt G4V5G4); assay: cAMP luminescence (GloSensor) assay, HEK293 cells expressing Sm5HTR; format: cell-based, S. mansoni; conditions: compound incubation followed by 50 μM 5-HT
Chain of Sm5HTR (G4V5G4 entry or part of it): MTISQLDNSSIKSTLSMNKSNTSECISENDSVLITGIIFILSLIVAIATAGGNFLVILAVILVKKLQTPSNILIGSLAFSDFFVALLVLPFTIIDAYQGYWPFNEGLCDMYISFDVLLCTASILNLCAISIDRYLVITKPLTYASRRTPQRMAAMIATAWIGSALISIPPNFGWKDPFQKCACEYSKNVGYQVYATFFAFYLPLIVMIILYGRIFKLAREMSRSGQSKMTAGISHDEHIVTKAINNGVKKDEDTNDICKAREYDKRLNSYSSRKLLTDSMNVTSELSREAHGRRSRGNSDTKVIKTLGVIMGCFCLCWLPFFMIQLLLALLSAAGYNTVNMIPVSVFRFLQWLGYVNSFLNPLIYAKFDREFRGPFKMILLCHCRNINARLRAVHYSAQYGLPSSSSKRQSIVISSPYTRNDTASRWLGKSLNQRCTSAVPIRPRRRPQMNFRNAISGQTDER

[8] = system: naïve Glo HEK293 cells (no receptor); assay: cAMP luminescence (GloSensor) assay on naïve Glo HEK293 cells (no receptor); format: cell-based, human; conditions: 20 μM forskolin
Procedure: The SmGPR2 sequence previously identified ([El-Shehabi and Ribeiro, 2010]) was codon optimized for mammalian expression and subcloned in the vector pCI-neo (Addgene, USA) using the XbaI and NotI restriction enzymes. A FLAG fusion tag ([…]) was introduced at the N-terminal end of the receptor sequence. Stable transfection of HEK293 cells (ATCC; CRL-1573) was performed using the X-tremeGENE 9 DNA transfection reagent (Sigma Aldrich). Cells were then cultured at 37 °C, 5% CO2 in Opti-MEM supplemented with 5% FBS and maintained in 400 μg/mL G418 (Sigma Aldrich) for selection of transformants. […] All cell lines expressing S. mansoni GPCRs were then transfected with the GloSensor encoding plasmid p22F (Promega) and media was supplemented with 100 μg/mL hygromycin for stable expression (ThermoFisher).
Adherent HEK293 cells were seeded at a density of 5 x 10^4 cells/well (96-well plate) in Opti-MEM without FBS or antibiotics and incubated overnight at 37 °C and 5% CO2 prior to the assay. In place of the media, 100 μL HBSS supplemented with 0.1% bovine serum albumin (BSA), 500 μM 3-isobutyl-1-methylxanthine (IBMX, Sigma Aldrich), 20 mM HEPES (pH 7.4) and 1 mg/mL D-luciferin (Goldbio) was added to each well. After a 2 h incubation period at room temperature, luminescence background was recorded, and compounds and control ligands were added at 10X concentration. Immediately after compound addition, luminescence was read over a 45 min period to detect compounds stimulating cAMP release through receptor activation. […] For each assay, luminescence responses were recorded in triplicate and repeated with four independant cell batches. Compounds were also added to naïve Glo HEK293 cells (no receptor) and the robustness of the assay was calculated as: Z^'=1−3×(SDmax+SDmin)/Meanmax−Meanmin with max and min referring respectively to cells expressing GPCRs and Glo (no receptor) cells. Cellular viability was assessed using a CellTiter Glo 2.0 kit (Promega). Glo cells were exposed to 10 μM of each hit compound for 3 h in Opti-MEM at 37 °C, 5% CO2. An equimolar concentration of tamoxifen (Sigma Aldrich) was used as a positive control. 2X cell lysis media was then added and end-point luminescence recorded after a 10 min stabilization time.

adult schistosomes = system: adult schistosomes; set-up: method as in Neves et al., 2016; conditions: transient hyperactivity, ref Neves et al., 2016, cited from earlier work
proteasome = system: proteasome; set-up: method as in Bibo-Verdugo et al., 2019; conditions: in vitro; ref Bibo-Verdugo et al., 2019; cited from earlier work
schistosomes [9] = system: schistosomes; set-up: method as in Bibo-Verdugo et al., 2019; conditions: in vitro; ref Bibo-Verdugo et al., 2019; cited from earlier work
schistosomes [10] = system: schistosomes; set-up: method as in Marcellino et al., 2012; conditions: ref Marcellino et al., 2012; cited from earlier work
SmGPR2 = SmGPR2 (Schistosoma mansoni, UniProt G4VIY8); assay: cell-based
Chain of SmGPR2 (G4VIY8 entry or part of it): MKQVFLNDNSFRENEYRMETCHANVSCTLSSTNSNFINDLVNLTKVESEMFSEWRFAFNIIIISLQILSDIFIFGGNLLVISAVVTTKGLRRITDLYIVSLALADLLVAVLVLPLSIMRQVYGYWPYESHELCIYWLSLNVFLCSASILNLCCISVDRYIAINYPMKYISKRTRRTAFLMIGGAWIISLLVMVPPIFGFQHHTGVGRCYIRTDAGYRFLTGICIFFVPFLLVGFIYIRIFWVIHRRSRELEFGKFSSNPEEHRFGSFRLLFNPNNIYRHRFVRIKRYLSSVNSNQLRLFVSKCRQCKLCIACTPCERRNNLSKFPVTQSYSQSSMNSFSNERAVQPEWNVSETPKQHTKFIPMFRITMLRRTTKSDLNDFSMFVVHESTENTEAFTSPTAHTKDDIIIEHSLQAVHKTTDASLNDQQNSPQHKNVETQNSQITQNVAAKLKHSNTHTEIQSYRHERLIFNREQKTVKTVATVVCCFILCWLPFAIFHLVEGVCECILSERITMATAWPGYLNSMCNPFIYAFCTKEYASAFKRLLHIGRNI
Procedure: The SmGPR2 sequence previously identified ([El-Shehabi and Ribeiro, 2010]) was codon optimized for mammalian expression and subcloned in the vector pCI-neo (Addgene, USA) using the XbaI and NotI restriction enzymes. A FLAG fusion tag ([…]) was introduced at the N-terminal end of the receptor sequence. Stable transfection of HEK293 cells (ATCC; CRL-1573) was performed using the X-tremeGENE 9 DNA transfection reagent (Sigma Aldrich). Cells were then cultured at 37 °C, 5% CO2 in Opti-MEM supplemented with 5% FBS and maintained in 400 μg/mL G418 (Sigma Aldrich) for selection of transformants. […]
Adherent HEK293 cells were seeded at a density of 5 x 10^4 cells/well (96-well plate) in Opti-MEM without FBS or antibiotics and incubated overnight at 37 °C and 5% CO2 prior to the assay. […] After a 2 h incubation period at room temperature, luminescence background was recorded, and compounds and control ligands were added at 10X concentration. Immediately after compound addition, luminescence was read over a 45 min period to detect compounds stimulating cAMP release through receptor activation. […] For each assay, luminescence responses were recorded in triplicate and repeated with four independant cell batches. […] Cellular viability was assessed using a CellTiter Glo 2.0 kit (Promega). […] 2X cell lysis media was then added and end-point luminescence recorded after a 10 min stabilization time.

[11] = 120 h, schistosomulae, secondary screen, 24h exposure, read at D5, 1 µM
[12] = schistosomulae, secondary screen, 24h exposure, read at D1, 1 µM
[13] = schistosomulae, 1h exposure, read at D1, 10 µM
[14] = schistosomulae, 1h exposure, read at D5, 10 µM
[15] = schistosomulae, 3h exposure, read at D1, 10 µM
[16] = schistosomulae, 3h exposure, read at D5, 10 µM
[17] = schistosomulae, 6h exposure, read at D1, 10 µM
[18] = schistosomulae, 6h exposure, read at D5, 10 µM
[19] = schistosomulae, secondary screen, 24h exposure, read at D1, 10 µM
[20] = schistosomulae, secondary screen, 24h exposure, read at D5, 10 µM
[21] = three-day-old schistosomulae, 10 μM, 24 h

Compound | viability at 10 µM [1] | activity at 1 µM [2, 11] | activity at 1 µM [2, 12] | Fractional motility [2, 13] | Fractional motility [2, 14] | Fractional motility [2, 15] | Fractional motility [2, 16] | Fractional motility [2, 17] | Fractional motility [2, 19] | Fractional motility [2, 20] | Phenotype [3, 21] | motility phenotype in words (S. mansoni adult worms) | Fractional motility (S. mansoni adult worms; D1, Female adult worms) | Fractional motility (S. mansoni adult worms; D1, Male adult worms) | Fractional motility (S. mansoni adult worms; D5, Female adult worms) | Fractional motility (S. mansoni adult worms; D5, Male adult worms) | further results
C=C1C(=O)O[C@H]2[C@H]1CC/C(C)=C/CC[C@@]1(C)O[C@@H]21 [(-)-Parthenolide] | 0% | -16% | -3% | -0.61 | -0.72 | -0.27 | -0.10 | 3.66 | 0.67 | -0.99 | big, dark, granulated | severely paralyzed adults | -0.36 | 0.14 | -0.65 | -0.34 | Fractional motility [2, 18]: -0.86; effect on viability of schistosomulae in words [3]: total schistosomulicid action; hypomotility (S. mansoni adult worms; adult male and female parasites, long-term): 49.5%; mortality (schistosomes [4]): 100%
CN(C)CCCN1c2ccccc2Sc2ccc(Cl)cc21 [Chlorpromazine] | 96% | 95% | 785% | – | – | – | – | – | 13.78 | 3.15 | elongated | – | 0.57 | 2.38 | -0.45 | 0.24 | hypermotility compared to control schistosomulae ([2]; 10 μM): > 10 fold; peak motility relative to control schistosomulae (schistosomulae [5]): exceeding 50 fold
CC(C)C[C@@H](C=O)NC(=O)[C@H](CC(C)C)NC(=O)[C@H](CC(C)C)NC(=O)OCc1ccccc1 [MG-132] (Cbz-Leu-Leu-Leu-aldehyde) | – | – | – | – | – | – | – | – | – | – | – | – | – | – | – | – | fewer parasites migrated to the lung compared to control animals (schistosomes [6]): 65%
COC(=O)C1=C(C)NC(C)=C(C(=O)OCCN2CCN(C(c3ccccc3)c3ccccc3)CC2)C1c1cccc([N+](=O)[O-])c1 (centres unmarked) [Manidipine] | 97% | -59% | -79% | -0.94 | -0.59 | -0.33 | -0.75 | -0.74 | -0.78 | -0.85 | abnormal morphology, big, granulated | strongly impaired movement | 0.19 | -0.20 | -0.91 | -0.98 | hypomotility ([2]; schistosomulae, all tested concentrations until five days after drug washout): ≥ 59%; motility in extended assay with reduced incubation times, in words ([2]; three-day old schistosomulae, incubation 1 h, 3 h, 6 h): significant and sustained hypomotility; effect on viability of schistosomulae in words [3]: no larval mortality was observed; activity on schistosomulae in words (schistosomulae [7]): schistosomulicidal
Cc1ccc(S(=O)(=O)c2ccc([N+](=O)[O-])o2)cc1 [NSC697923] | – | – | – | -0.93 | -1.00 | -1.00 | -0.99 | -0.93 | 3.05 | -1.00 | dark, granulated | Significant hypomotility | 0.25 | 0.30 | -0.95 | -0.78 | reduction of ATP released by cells (Glo HEK293 cells): 48.1 ± 5.7%; inhibition of Sm5HTR 5-HT-evoked signals (Sm5HTR): ≥ 50%; Fractional motility [2, 18]: -0.99; Fractional motility [2, 12]: -0.18; Fractional motility ([2]; schistosomulae, secondary screen, 24h exposure, read at D5, 1 µM): -0.90; Viability (%) ([3]; three-day-old schistosomulae, 10 μM, 24 h, calculated 5 days post compound exposure): 0%; effect on luminescence evoked by forskolin [8]: significant decrease in luminescence
Fc1ccc([C@@H]2CCNC[C@H]2COc2ccc3c(c2)OCO3)cc1 [Paroxetine] | 90% | – | – | – | – | – | – | – | – | – | granulated | – | 0.47 | 1.07 | -0.42 | -0.49 | EC50 (adult schistosomes; female worms): 11.9 µM; EC50 (adult schistosomes; male worms): 2.7 µM; activity at 1 µM ([2]; 120 h, Selleckchem customized library secondary screen, 24h, D5, 1 µM): 256%; Fractional motility ([2]; Selleckchem customized library secondary screen, 24h, D1, 10 µM): 55.45; Fractional motility ([2]; Selleckchem customized library secondary screen, 24h, D5, 10 µM): 1.54; motility phenotype in words ([2]; schistosomulae, after 24 h exposure): high levels of hypermotility
CC(C)C[C@H](NC(=O)[C@H](CCc1ccccc1)NC(=O)CN1CCOCC1)C(=O)N[C@@H](Cc1ccccc1)C(=O)N[C@@H](CC(C)C)C(=O)[C@@]1(C)CO1 [carfilzomib] | – | – | – | – | – | – | – | – | – | – | – | – | – | – | – | – | reduction of proteasome activity (proteasome): > 75%; reduction of worm motility (schistosomes [9]): > 85%; motility reduction (schistosomes [10]): > 90%
NCCc1c[nH]cn1 [histamine] | – | – | – | – | – | – | – | – | – | – | – | – | – | – | – | – | EC50 (SmGPR2): 12.5 ± 1.5 µM
